test system: HeLa cells expressing GFP-LC3; assay: GFP-LC3 puncta in the presence of specific inhibitors; assay type: cell-based, human; conditions: LP-4 10 μM, 4 hours, CC 10 μM, STO-609 25 μM, BM 10 μM
Protocol: GFP-LC3 puncta formation was quantified as previously described^15. In brief, HeLa cells expressing GFP-LC3 were treated with N-desmethyldauricine (LP-4, 10 μM) in the presence of AMPK inhibitor, compound C (CC, 10 μM), CaMKK-β inhibitor, STO-609 (25 μM) or Calcium chelator, BAPTA/AM (BM, 10 μM) for 4 hours. The cells were then fixed in 4% paraformaldehyde for 20 minutes at room temperature and then rinsed with PBS. Slides were mounted with FluorSave™ mounting media (Calbiochem) and examined by fluorescence microscopy. To quantify for autophagy, the percentage of cells with punctate GFP-LC3 fluorescence was calculated by counting the number of the cells with punctate GFP-LC3 fluorescence in GFP-positive cells. A minimum of 150 cells from 3 randomly selected fields was scored.

SMILES	N-desmethyldauricine-induced GFP-LC3 puncta formation in presence of inhibitor
CC(=O)OCOC(=O)CN(CC(=O)OCOC(C)=O)c1ccccc1OCCOc1ccccc1N(CC(=O)OCOC(C)=O)CC(=O)OCOC(C)=O [BAPTA/AM]	significant reduction
O=C(O)c1ccc2c3c1cccc3c(=O)n1c3ccccc3nc21 [STO-609]	significant reduction
c1cc(-c2cnn3cc(-c4ccc(OCCN5CCCCC5)cc4)cnc23)ccn1 [compound C]	significant reduction

— patent US20150133492A1, “N-desmethyldauricine, A Novel Autophagic Enhancer for Treatment of Cancers and Neurodegenerative Conditions Thereof” (Macau University of Science and Technology, priority 2013, published 2015)
